Data: ChEMBL document CHEMBL1201862, “PubChem BioAssay data set” (2004)
Counter-ions that a name gives are not always drawn. Values belong to the molecule of their own block, whether it stands above or below them. Calls of active or inactive are those of the source.

Legend:
[1] = cytotoxicity toward HT-29 cells – cell-based, CellTiter-Glo luminescence, IC50, dose response (AID 1117330); format: functional
[2] = cytotoxicity toward Colo320 cells – cell-based, CellTiter-Glo luminescence, IC50, dose response (AID 1117334); format: functional; settings: COLO 320
[3] = cytotoxicity toward HCT116 cells – cell-based, CellTiter-Glo luminescence, IC50, dose response (AID 1117332); format: functional; settings: HCT-116
[4] = HCT116 cell viability decrease, GSK3B pretreatment – CellTiter-Glo, IC50, dose response (AID 1117339); format: functional; settings: HCT-116
[5] = SNU-C1 cell viability reduction, dose response, CellTiter-Glo luminescence (AID 1117323); format: functional, cell-based
[6] = RKO cell viability reduction, dose response, CellTiter-Glo luminescence (AID 1117322); format: functional
[7] = CellTiter-Glo luminescence survival assay, SW480 colon tumor line, concentration-response curve, half-maximal inhibitory concentration (AID 1117338); format: functional
[8] = Reduced DLD-1 viability, concentration-response, CellTiter-Glo luminescence (AID 1117352); format: functional
[9] = HIV-1 Vif–A3G interaction blockers – biochemical, TR-FRET, GST-Vif 1-94, biotin-A3G peptide, dose response retest, primary screen (AID 1117319); format: functional;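 further: TR-FRET signal of purified GST-Vif binding a biotinylated A3G peptide; inhibitors lower the FRET signal by blocking Vif and A3G binding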
[10] = target: Tyrosyl-DNA phosphodiesterase 2 (Homo sapiens, UniProt O95551); experiment: potency against TDP2 phosphodiesterase activity – biochemical, epi absorbance, IC50, dose response (AID 743297)
[11] = target: T1, Sentrin-specific protease 8 (Homo sapiens, UniProt Q96LD8); format: functional
T1 sequence (Q96LD8 whole entry): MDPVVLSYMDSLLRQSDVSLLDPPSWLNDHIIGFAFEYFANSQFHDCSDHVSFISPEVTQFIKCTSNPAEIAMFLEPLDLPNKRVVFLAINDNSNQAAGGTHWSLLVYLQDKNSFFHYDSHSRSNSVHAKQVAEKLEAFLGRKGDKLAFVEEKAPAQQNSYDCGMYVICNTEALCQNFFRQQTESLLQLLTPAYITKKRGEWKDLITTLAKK

[12] = target: T2, Caspase-6 (Homo sapiens, UniProt P55212); experiment: inhibition of CASP6 peptide cleavage – biochemical, VEID-R110 fluorescence, cherry-pick, dose response (AID 720632)
T2 sequence (P55212 whole entry): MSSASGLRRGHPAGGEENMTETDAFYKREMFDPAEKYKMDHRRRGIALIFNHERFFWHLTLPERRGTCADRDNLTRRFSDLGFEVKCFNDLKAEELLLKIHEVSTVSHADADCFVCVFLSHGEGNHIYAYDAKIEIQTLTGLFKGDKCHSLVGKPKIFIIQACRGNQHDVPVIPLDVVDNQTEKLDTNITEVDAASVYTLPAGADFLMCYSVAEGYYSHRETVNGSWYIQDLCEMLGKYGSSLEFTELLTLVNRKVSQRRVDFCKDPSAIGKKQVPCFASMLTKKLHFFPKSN

[13] = target: T1, Sentrin-specific protease 8; format: functional; remark: listed apart in the source
[14] = target: T3, SUMO-activating enzyme (Homo sapiens, UniProt Q9UBT2); experiment: blockers of UBC9-mediated SUMO conjugation – biochemical, AlphaScreen, SUMOylation inhibitor project, confirmation (AID 2018); format: functional
[15] = target: T4, Histone-lysine N-methyltransferase NSD2 (Homo sapiens, UniProt O96028); format: biochemical
T4 sequence (O96028 whole entry): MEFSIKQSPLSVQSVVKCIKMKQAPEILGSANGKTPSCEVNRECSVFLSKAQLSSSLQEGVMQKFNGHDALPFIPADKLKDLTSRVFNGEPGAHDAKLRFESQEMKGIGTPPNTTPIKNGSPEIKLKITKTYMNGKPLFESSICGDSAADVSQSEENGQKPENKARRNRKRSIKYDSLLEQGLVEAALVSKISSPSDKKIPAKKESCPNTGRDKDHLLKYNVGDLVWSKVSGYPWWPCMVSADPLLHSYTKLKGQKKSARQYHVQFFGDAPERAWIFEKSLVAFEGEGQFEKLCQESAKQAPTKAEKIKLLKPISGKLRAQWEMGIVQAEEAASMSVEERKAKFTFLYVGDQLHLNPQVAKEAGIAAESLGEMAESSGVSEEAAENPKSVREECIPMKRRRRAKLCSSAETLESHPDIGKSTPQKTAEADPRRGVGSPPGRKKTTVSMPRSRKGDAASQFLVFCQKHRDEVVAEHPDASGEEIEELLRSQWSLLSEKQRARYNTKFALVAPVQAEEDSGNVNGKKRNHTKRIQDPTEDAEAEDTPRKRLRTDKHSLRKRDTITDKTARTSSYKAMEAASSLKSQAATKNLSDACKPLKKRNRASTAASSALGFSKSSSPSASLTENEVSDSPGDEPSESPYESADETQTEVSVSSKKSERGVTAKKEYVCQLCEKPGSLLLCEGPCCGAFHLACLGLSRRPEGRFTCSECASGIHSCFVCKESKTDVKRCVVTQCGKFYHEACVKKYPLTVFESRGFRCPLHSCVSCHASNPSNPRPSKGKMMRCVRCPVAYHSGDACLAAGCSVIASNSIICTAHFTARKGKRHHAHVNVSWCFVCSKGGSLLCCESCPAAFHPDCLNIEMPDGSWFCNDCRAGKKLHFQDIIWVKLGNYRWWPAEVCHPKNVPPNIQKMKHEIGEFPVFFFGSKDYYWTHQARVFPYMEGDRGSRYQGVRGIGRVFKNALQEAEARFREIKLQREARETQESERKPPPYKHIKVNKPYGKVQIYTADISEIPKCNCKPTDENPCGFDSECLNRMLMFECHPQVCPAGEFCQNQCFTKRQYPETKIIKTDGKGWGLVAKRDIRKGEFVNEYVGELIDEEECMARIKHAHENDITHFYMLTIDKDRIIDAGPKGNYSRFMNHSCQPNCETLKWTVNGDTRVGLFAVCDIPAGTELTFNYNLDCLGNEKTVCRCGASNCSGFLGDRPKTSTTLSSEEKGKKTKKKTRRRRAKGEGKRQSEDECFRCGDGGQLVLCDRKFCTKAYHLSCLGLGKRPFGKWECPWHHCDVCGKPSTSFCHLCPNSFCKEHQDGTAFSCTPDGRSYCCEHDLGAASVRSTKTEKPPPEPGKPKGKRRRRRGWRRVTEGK

[16] = target: Glutathione-S-transferase (Schistosoma japonicum, UniProt Q26513); experiment: GST-antibody interaction or FRET quenching – biochemical, TR-FRET, artefact control for Vif-APOBEC3G degradation inhibitor project, dose response (AID 1117362); format: functional
[17] = target: T5, Apoptotic protease-activating factor 1 (Homo sapiens, UniProt O14727); format: functional
T5 sequence (O14727 whole entry): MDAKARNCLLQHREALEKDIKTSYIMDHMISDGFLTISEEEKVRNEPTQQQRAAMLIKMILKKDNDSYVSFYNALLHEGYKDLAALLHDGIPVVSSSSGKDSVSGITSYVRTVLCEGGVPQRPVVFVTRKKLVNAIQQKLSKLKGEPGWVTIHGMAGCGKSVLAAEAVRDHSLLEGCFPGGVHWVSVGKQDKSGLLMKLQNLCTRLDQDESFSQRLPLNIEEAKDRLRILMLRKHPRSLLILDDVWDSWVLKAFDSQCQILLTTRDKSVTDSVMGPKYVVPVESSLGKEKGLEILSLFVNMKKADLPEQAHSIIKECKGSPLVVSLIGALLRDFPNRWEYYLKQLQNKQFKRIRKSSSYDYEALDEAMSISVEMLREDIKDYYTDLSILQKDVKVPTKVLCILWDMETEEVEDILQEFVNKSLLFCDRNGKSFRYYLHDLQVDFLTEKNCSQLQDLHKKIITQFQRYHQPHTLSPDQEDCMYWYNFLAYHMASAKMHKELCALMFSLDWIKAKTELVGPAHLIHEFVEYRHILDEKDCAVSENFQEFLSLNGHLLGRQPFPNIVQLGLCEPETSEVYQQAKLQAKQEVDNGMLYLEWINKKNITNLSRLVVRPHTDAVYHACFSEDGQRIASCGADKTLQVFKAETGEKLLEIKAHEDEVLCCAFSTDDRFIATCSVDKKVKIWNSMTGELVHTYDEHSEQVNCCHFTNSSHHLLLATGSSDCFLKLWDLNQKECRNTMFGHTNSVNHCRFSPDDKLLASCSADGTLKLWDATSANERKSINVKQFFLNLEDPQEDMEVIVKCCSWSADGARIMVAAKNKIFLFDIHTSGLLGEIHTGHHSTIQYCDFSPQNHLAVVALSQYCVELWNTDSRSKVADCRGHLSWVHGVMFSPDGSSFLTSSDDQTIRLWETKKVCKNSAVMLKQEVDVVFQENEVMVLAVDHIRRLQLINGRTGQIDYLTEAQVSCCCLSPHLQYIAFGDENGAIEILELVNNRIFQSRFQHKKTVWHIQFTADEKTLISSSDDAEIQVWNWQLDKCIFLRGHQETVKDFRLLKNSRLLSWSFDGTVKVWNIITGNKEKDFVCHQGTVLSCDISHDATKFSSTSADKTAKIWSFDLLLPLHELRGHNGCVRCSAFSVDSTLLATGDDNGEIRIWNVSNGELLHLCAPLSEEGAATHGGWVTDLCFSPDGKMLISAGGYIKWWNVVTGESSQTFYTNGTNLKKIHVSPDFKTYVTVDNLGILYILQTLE

[18] = target: T3, SUMO-activating enzyme; experiment: blockers of SAE1/SAE2–UBC9 SUMO transfer – biochemical, HTRF, uHTS, primary screen (AID 2006); format: protein-complex assay
[19] = target: Protein Tat (Human immunodeficiency virus type 1 group M subtype B (isolate HXB2)(HIV-1), UniProt P04608); format: functional;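 further: tat binding to TAR RNA read out by fluorescence polarization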
Chain of Protein Tat (P04608 whole entry): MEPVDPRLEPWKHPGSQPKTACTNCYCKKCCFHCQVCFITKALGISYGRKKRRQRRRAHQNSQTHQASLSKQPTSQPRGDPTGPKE

T3 sequence (Q9UBE0 whole entry): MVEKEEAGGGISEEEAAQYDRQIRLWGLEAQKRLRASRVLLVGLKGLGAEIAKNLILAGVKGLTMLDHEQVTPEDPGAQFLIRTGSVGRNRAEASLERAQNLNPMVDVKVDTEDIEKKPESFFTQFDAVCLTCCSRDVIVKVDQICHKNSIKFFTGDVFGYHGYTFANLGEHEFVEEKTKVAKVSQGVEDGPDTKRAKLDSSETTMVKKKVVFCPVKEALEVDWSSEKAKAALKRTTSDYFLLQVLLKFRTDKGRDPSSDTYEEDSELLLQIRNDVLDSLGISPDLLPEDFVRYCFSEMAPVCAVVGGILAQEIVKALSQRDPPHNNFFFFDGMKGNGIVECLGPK
T3 sequence (Q9UBT2 whole entry): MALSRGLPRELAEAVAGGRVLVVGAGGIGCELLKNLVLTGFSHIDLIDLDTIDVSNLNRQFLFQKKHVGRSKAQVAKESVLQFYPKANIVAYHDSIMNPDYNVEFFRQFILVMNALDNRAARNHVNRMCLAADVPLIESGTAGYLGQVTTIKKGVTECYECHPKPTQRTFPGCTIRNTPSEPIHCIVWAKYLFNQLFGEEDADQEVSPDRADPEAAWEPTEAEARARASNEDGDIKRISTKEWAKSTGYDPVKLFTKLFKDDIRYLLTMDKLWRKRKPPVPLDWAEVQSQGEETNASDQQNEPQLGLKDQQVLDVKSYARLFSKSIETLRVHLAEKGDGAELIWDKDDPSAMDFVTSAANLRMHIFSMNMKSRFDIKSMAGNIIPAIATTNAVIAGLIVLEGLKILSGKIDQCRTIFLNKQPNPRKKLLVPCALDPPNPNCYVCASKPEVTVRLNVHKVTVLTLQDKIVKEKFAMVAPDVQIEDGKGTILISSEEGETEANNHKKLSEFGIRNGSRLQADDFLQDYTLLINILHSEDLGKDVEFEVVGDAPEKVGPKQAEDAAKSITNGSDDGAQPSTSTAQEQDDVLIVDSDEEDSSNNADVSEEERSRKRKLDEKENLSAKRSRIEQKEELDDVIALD
Chain of Glutathione-S-transferase (Q26513 whole entry): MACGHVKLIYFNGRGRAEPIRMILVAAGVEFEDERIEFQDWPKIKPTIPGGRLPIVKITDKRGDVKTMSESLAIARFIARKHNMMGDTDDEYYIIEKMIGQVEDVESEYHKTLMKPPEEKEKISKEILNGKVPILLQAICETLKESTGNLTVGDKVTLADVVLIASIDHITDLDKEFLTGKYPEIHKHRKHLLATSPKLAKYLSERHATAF
Chain of Tyrosyl-DNA phosphodiesterase 2 (O95551 whole entry): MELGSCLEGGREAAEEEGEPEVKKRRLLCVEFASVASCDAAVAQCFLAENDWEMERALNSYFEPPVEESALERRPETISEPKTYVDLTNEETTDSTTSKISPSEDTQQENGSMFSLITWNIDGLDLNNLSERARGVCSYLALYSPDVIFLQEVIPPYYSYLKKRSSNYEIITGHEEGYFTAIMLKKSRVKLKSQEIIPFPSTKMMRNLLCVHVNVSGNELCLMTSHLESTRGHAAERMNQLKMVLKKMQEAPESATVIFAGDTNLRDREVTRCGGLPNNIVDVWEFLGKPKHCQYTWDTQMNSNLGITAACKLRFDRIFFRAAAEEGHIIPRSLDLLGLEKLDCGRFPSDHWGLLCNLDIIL

Compound: NC1=NCC2c3ccccc3Cc3ccccc3N12 (centres undefined) [EPINASTINE HYDROCHLORIDE]
IC50 [1]: > 20 µM (inactive) | IC50 [2]: > 20 µM (inactive) | IC50 [3]: > 20 µM (inactive) | IC50 [4]: > 20 µM (inactive) | IC50 [5]: > 20 µM (inactive) | IC50 [6]: > 20 µM (inactive) | IC50 [7]: > 20 µM (inactive) | IC50 [8]: > 20 µM (inactive)

IC50 [9]: > 100 µM (active)
Compound: O=C(O)c1[nH]c2ccc(Cl)cc2c1CC(=O)N1CCN(C(=O)c2ccco2)CC1

IC50 [10]: 9.9 µM (active) | AC50 [12]: 12.6 µM (active) | IC50 [14]: 2.7 µM (active) | AC50 [15]: 4.43 µM (active) | IC50 [16]: > 100 µM (active) | IC50 [17]: 16.8 µM (active) | IC50 [18]: 16.2 µM (active)
Compound: CN(C)c1cc(Cl)c2nonc2c1N
IC50 [11]: 6.83 µM (active) | IC50 [13]: 8.12 µM (active)

IC50 [19]: > 100 µM (active)
Compound: CN1CCN(C(=O)CSc2nc(-c3cccs3)ccc2C#N)CC1
